Measurements taken from publication PMC5146860, “Succinate production positively correlates with the affinity of the global transcription factor Cra for its effector FBP in Escherichia coli” (Biotechnology for Biofuels, 2016).

What was measured:
Assay in all cases: isothermal titration calorimetry
[1] = biological target: T1, Cra (catabolite repressor/activator; FruR) (Escherichia coli, UniProt P0ACP1); settings: 25 °C; 50 mM FBP injected into 15 μM protein (Fig. 5 legend prints 15 mM); effector-binding site
T1 construct: 2IKS is effector-free regulatory domain used for docking

[2] = biological target: T2, Cra (catabolite repressor/activator; FruR) (Escherichia coli, UniProt P0ACP1, D148R/A248F/G274R); settings: 25 °C; 50 mM FBP injected into 15 μM protein (Fig. 5 legend prints 15 mM); effector-binding site; mutant of strain Tang1684
T2 construct: 2IKS is effector-free regulatory domain used for docking

[3] = biological target: T3, Cra (catabolite repressor/activator; FruR) (Escherichia coli, UniProt P0ACP1, N73Y/D148R/G274R); settings: 25 °C; 50 mM FBP injected into 15 μM protein (Fig. 5 legend prints 15 mM); effector-binding site; mutant of strain Tang1688
T3 construct: 2IKS is effector-free regulatory domain used for docking

[4] = biological target: T4, Cra (catabolite repressor/activator; FruR) (Escherichia coli, UniProt P0ACP1, D101R/D148R/G274R); settings: 25 °C; 50 mM FBP injected into 15 μM protein (Fig. 5 legend prints 15 mM); effector-binding site; mutant of strain Tang1683
T4 construct: 2IKS is effector-free regulatory domain used for docking

How did the Kd [1] turn out when O=P(O)(O)OC[C@H]1OC(O)(COP(=O)(O)O)[C@@H](O)[C@@H]1O (stereo partly shown) [fructose-1,6-bisphosphate] was run?
The Kd was 1360 ± 6.2 nM.

And the Kd [2]?
The Kd was 728.3 ± 3.8 nM.

And the Kd [3]?
Its Kd is 809.1 ± 4.6 nM.

What about the Kd [4] of the same compound?
Its Kd is 154 ± 4.3 nM.
